IC50 data for 53 compounds are collected here from patent US7674823B2, “DNA-PK inhibitors” (Cancer Research Technology Limited, priority 2001, dated 2010).

Read-outs that look alike come from different tables or passages of the source.

The target of the assay is T1, Mammalian DNA-PK, isolated from Hela cell nuclear extract (Homo sapiens, UniProt P78527).
T1 construct: Mammalian DNA-PK, isolated from Hela cell nuclear extract; endogenous in cells; host or cells: HeLa cell nuclear extract (purified per Gell and Jackson 1999)
Nature of the assay: DNA-PK inhibition assay (33P-ATP, filter binding). The format is biochemical. Here is the method: In order to assess the inhibitory action of the compounds against DNA-PK in vitro, the following assay was used to determine IC50 values.
The total assay volume per well was 40 μl.
After 10 minutes of incubation at 30° C. the reactions were initiated by the addition of Na-ATP (50 μM final), ^33p-γATP and a 30mer double stranded DNA oligonucleotide (10 ng/μl) in a volume of 10 μl. Designated positive and negative reaction wells were done in combination with compound wells (unknowns) in order to calculate % enzyme activities. The plates were then shaken for 2 minutes and incubated at 30° C. for 45 minutes.
Following the incubation, the reactions were quenched by the addition of 50 μl 30% acetic acid to each well. The plates were then shaken for 5 minutes and the contents of each plate (80 μl from each well) transferred over to a 96 well Polyfiltronics filtration plate, containing P81-phosphocellulose membrane (TRADE MARK)(Whatman, UK). The solutions were vacuum pumped through the membrane and each well membrane washed four times using 300 μl of 15% acetic acid. The well membranes were then air dried and 20 μl of scintillant was added to each well.
The plates were transferred to a TopCount NXT (TRADE MARK) (Packard, UK) for scintillation counting. Values recorded are counts per minute (cpm) following a 1 minute counting time for each well.
The enzyme activity for each compound is then calculated using the following equation: […]
These are determined over a range of different concentrations, normally from 10 μM down to 0.01 μM. Such IC50 values are used as comparative values to identify increased compound potencies.

Where [1] appears, read: IC50 of less than about 1 μM and/or % inhibition of more than about 50 at 1 μM, read-out: DNA-PK inhibition IC50 (particular efficacy).

As for `O=c1cc(N2CC[C@H](O)C2)nc2c3ccccc3ccn12` [Compound 12, 2-((S)-3-Hydroxy-pyrrolin-1-yl)-pyrimido[2,1-a]isoquinolin-4-one], the IC50 (read-out: DNA-PK Inhibition IC50) stood at 10500 nM. As to `O=c1cc(-c2ccc3c(c2)CCO3)oc(N2CCOCC2)c1` [Compound 59], the IC50 under setting [1] was less than 1000 nM. Turning to `O=c1cc(-c2ccc3c(c2)OCCO3)oc(N2CCOCC2)c1` [Compound 60], the IC50 under setting [1] was less than 1000 nM. As for `O=c1cc(-c2cccc3ccsc23)oc(N2CCOCC2)c1` [Compound 72], the IC50 under setting [1] was less than 1000 nM.

For the compound `N#CCNC(=O)c1cccc(-c2cc(=O)cc(N3CCOCC3)o2)c1` [Compound 73], the IC50 under setting [1] is less than 1000 nM. The same measure, in the same setting: to `O=C(NC1CC1)c1cccc(-c2cc(=O)cc(N3CCOCC3)o2)c1` [Compound 74] belongs less than 1000 nM. Still for that read-out and setting: the figure for `O=C(NCc1cccc(C(F)(F)F)c1)c1cccc(-c2cc(=O)cc(N3CCOCC3)o2)c1` [Compound 99] is less than 1000 nM; for `Nc1cccc(CNC(=O)c2cccc(-c3cc(=O)cc(N4CCOCC4)o3)c2)c1` [Compound 104] it is less than 1000 nM. Same read-out and setting: the figure for `CN(C)c1ccc(CNC(=O)c2cccc(-c3cc(=O)cc(N4CCOCC4)o3)c2)cc1` [Compound 105] is less than 1000 nM; for `CN(C)CCN(Cc1ccccc1)C(=O)c1cccc(-c2cc(=O)cc(N3CCOCC3)o2)c1` [Compound 106] it is less than 1000 nM. In the case of `NCc1cccc(CNC(=O)c2cccc(-c3cc(=O)cc(N4CCOCC4)o3)c2)c1` [Compound 107], the IC50 under setting [1] was less than 1000 nM. Still for that read-out and setting: the figure for `O=C(NC1CCC(O)CC1)c1cccc(-c2cc(=O)cc(N3CCOCC3)o2)c1` (centres unmarked) [Compound 114] is less than 1000 nM; for `CCN(CC)CCCNC(=O)c1cccc(-c2cc(=O)cc(N3CCOCC3)o2)c1` [Compound 118] it is less than 1000 nM.

For the compound `O=C(CNC(=O)c1cccc(-c2cc(=O)cc(N3CCOCC3)o2)c1)c1cccc([N+](=O)[O-])c1` [Compound 123], the IC50 under setting [1] was less than 1000 nM.

Take `COCCCNC(=O)c1cccc(-c2cc(=O)cc(N3CCOCC3)o2)c1` [Compound 125]: the IC50 under setting [1] was less than 1000 nM. For `O=C(NCCOc1ccccc1)c1cccc(-c2cc(=O)cc(N3CCOCC3)o2)c1` [Compound 126], the IC50 under setting [1] was less than 1000 nM. Same read-out and setting: the figure for `COCCNC(=O)c1cccc(-c2cc(=O)cc(N3CCOCC3)o2)c1` [Compound 127] is less than 1000 nM; for `O=C(NCc1cccs1)c1cccc(-c2cc(=O)cc(N3CCOCC3)o2)c1` [Compound 131] it is less than 1000 nM. Still for that read-out and setting: the figure for `O=C(c1cccc(-c2cc(=O)cc(N3CCOCC3)o2)c1)N1CCOCC1` [Compound 139] is less than 1000 nM; for `O=C(c1cccc(-c2cc(=O)cc(N3CCOCC3)o2)c1)N1CCCC(CO)C1` (centres unmarked) [Compound 140] it is less than 1000 nM; for `O=C(c1cccc(-c2cc(=O)cc(N3CCOCC3)o2)c1)N1CCN(C/C=C/c2ccccc2)CC1` [Compound 143] it is less than 1000 nM.

With `O=C(NN1CCOCC1)c1cccc(-c2cc(=O)cc(N3CCOCC3)o2)c1` [Compound 146], under setting [1], the IC50 was less than 1000 nM.

Turning to `Cc1ccccc1CNC(=O)c1ccc(-c2cc(=O)cc(N3CCOCC3)o2)cc1` [Compound 163], the IC50 under setting [1] is less than 1000 nM.

`O=C(c1ccc(-c2cc(=O)cc(N3CCOCC3)o2)cc1)N(Cc1ccccc1)Cc1ccccc1` [Compound 166]: the IC50 under setting [1] is less than 1000 nM. Consider `COc1ccc(CCNC(=O)c2ccc(-c3cc(=O)cc(N4CCOCC4)o3)cc2)cc1` [Compound 167], for which the IC50 under setting [1] is less than 1000 nM. The same measure, in the same setting: the figure for `O=C(NCc1cccc(F)c1)c1ccc(-c2cc(=O)cc(N3CCOCC3)o2)cc1` [Compound 169] is less than 1000 nM. Regarding `O=C(NCCCc1ccccc1)c1ccc(-c2cc(=O)cc(N3CCOCC3)o2)cc1` [Compound 170], the IC50 under setting [1] is less than 1000 nM. Take `CC(CNC(=O)c1ccc(-c2cc(=O)cc(N3CCOCC3)o2)cc1)c1ccc(Cl)cc1` (centres unmarked) [Compound 173]: under setting [1], the IC50 was less than 1000 nM.

On to `O=C(NCc1ccc(OC(F)(F)F)cc1)c1ccc(-c2cc(=O)cc(N3CCOCC3)o2)cc1` [Compound 175], for which, under setting [1], the IC50 was less than 1000 nM. `O=C(NCc1cc(C(F)(F)F)cc(C(F)(F)F)c1)c1ccc(-c2cc(=O)cc(N3CCOCC3)o2)cc1` [Compound 176]: under setting [1], the IC50 is less than 1000 nM. For `O=C(NCc1cccc(C(F)(F)F)c1)c1ccc(-c2cc(=O)cc(N3CCOCC3)o2)cc1` [Compound 178], the IC50 under setting [1] is less than 1000 nM.

Take `O=C(NCc1cc(F)cc(C(F)(F)F)c1)c1ccc(-c2cc(=O)cc(N3CCOCC3)o2)cc1` [Compound 179]: the IC50 under setting [1] was less than 1000 nM. Still for that read-out and setting: to `Nc1cccc(CNC(=O)c2ccc(-c3cc(=O)cc(N4CCOCC4)o3)cc2)c1` [Compound 182] belongs less than 1000 nM; to `O=C(NCCSCc1c(F)cccc1Cl)c1ccc(-c2cc(=O)cc(N3CCOCC3)o2)cc1` [Compound 187], less than 1000 nM; to `O=C(NC(CO)CO)c1ccc(-c2cc(=O)cc(N3CCOCC3)o2)cc1` [Compound 190], less than 1000 nM. Turning to `CSCCC(CO)NC(=O)c1ccc(-c2cc(=O)cc(N3CCOCC3)o2)cc1` (centres unmarked) [Compound 192], under setting [1], the IC50 is less than 1000 nM. The same measure, in the same setting: the figure for `CC(C)(C)OC(=O)CNC(=O)c1ccc(-c2cc(=O)cc(N3CCOCC3)o2)cc1` [Compound 194] is less than 1000 nM; for `COCC(Cc1ccccc1)NC(=O)c1ccc(-c2cc(=O)cc(N3CCOCC3)o2)cc1` (centres unmarked) [Compound 200] it is less than 1000 nM. On the same count and under the same terms, the figure for `O=C(NCCOc1ccccc1)c1ccc(-c2cc(=O)cc(N3CCOCC3)o2)cc1` [Compound 202] is less than 1000 nM. The same measure, in the same setting: to `O=C(NCCCNC(=O)c1ccc(-c2cc(=O)cc(N3CCOCC3)o2)cc1)OCc1ccccc1` [Compound 203] belongs less than 1000 nM. As for `O=C(NC1CCN(Cc2ccccc2)CC1)c1ccc(-c2cc(=O)cc(N3CCOCC3)o2)cc1` [Compound 205], under setting [1], the IC50 is less than 1000 nM. Take `O=C(NC1CN2CCC1CC2)c1ccc(-c2cc(=O)cc(N3CCOCC3)o2)cc1` (centres unmarked) [Compound 206]: the IC50 was less than 1000 nM. Consider `O=C(NCc1ccco1)c1ccc(-c2cc(=O)cc(N3CCOCC3)o2)cc1` [Compound 211], for which the IC50 under setting [1] is less than 1000 nM. Take `O=C(NCc1ccccn1)c1ccc(-c2cc(=O)cc(N3CCOCC3)o2)cc1` [Compound 214]: the IC50 under setting [1] was less than 1000 nM. Turning to `CCOC(=O)C1CCCN(C(=O)c2ccc(-c3cc(=O)cc(N4CCOCC4)o3)cc2)C1` (centres unmarked) [Compound 215], the concentration for half-maximal inhibition (IC50) under setting [1] is less than 1000 nM.

`COC(=O)C(NCc1ccc(-c2cc(=O)cc(N3CCOCC3)o2)cc1)c1ccccc1` (centres unmarked) [Compound 247]: under setting [1], the IC50 is less than 1000 nM. Same read-out and setting: to `O=c1cc(-c2ccc(CNCc3cccc(F)c3)cc2)oc(N2CCOCC2)c1` [Compound 249] belongs less than 1000 nM; to `O=c1cc(-c2ccc(CNCc3ccc(OC(F)(F)F)cc3)cc2)oc(N2CCOCC2)c1` [Compound 252], less than 1000 nM. Turning to `COc1cccc(CNCc2ccc(-c3cc(=O)cc(N4CCOCC4)o3)cc2)c1OC` [Compound 253], the IC50 under setting [1] was less than 1000 nM.

As to `Nc1ccccc1CNCc1ccc(-c2cc(=O)cc(N3CCOCC3)o2)cc1` [Compound 255], under setting [1], the 50% inhibitory concentration (IC50) was less than 1000 nM. The same measure, in the same setting: the figure for `O=c1cc(-c2ccc(CN3Cc4cccc5cccc(c45)C3)cc2)oc(N2CCOCC2)c1` [Compound 258] is less than 1000 nM; for `O=c1cc(-c2ccc(CN3CCc4ccccc4C3)cc2)oc(N2CCOCC2)c1` [Compound 260] it is less than 1000 nM; for `CC(=O)OC(C)C(=O)Nc1ccc(-c2cc(=O)cc(N3CCOCC3)o2)cc1` (centres unmarked) [Compound 267] it is less than 1000 nM.
